Assay results: patent US20220241249A1, “PHARMACEUTICAL COMPOSITION AND KIT CONTAINING NOVEL PENAM DERIVATIVE OR SALT THEREOF AND ONE OR MORE COMPOUNDS SELECTED FROM beta-LACTAMASE INHIBITORY COMPOUND AND ANTIBACTERIAL COMPOUND OR SALTS THEREOF” (priority 2019, published 2022)
In brackets after ≈: the same amount, converted by molar mass.

Columns and labels:
[1] = tested on: VIM-2-containing Pseudomonas aeruginosa strain (S-3779); assay: Antibacterial activity evaluation test, MIC by broth microdilution (CLSI); assay type: cell-based; details: Pseudomonas aeruginosa
How it was run: (§1)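 Overnight Mueller Hinton agar cultures were suspended to 0.5 McFarland, diluted 10-fold and used to inoculate cation-adjusted Mueller Hinton broth containing test compound. Plates were incubated at 35° C. for 16 to 20 hours; MIC (μg/mL) was the lowest concentration without visible growth.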

[2] = tested on: AmpC-derepressed Pseudomonas aeruginosa mutant strain (S-3028); assay: as above; assay type: cell-based; details: Pseudomonas aeruginosa
How it was run: as §1

[3] = tested on: Pseudomonas aeruginosa strain ATCC27853; assay: as above; assay type: cell-based; details: Pseudomonas aeruginosa, ATCC27853
How it was run: as §1

[4] = tested on: CTX-M-15-containing Escherichia coli strain (TK-1747); assay: as above; assay type: cell-based; details: Escherichia coli
How it was run: as §1

[5] = tested on: NDM-1-containing Klebsiella pneumoniae strain (Y-1007); assay: as above; assay type: cell-based; details: Klebsiella pneumoniae
How it was run: as §1

[6] = tested on: GES-19 and GES-20-containing Pseudomonas aeruginosa strain (S-3759); assay: as above; assay type: cell-based; details: Pseudomonas aeruginosa
How it was run: as §1

[7] = tested on: IMP-1-containing Pseudomonas aeruginosa strain (S-2838); assay: as above; assay type: cell-based; details: Pseudomonas aeruginosa
How it was run: as §1

[8] = tested on: KPC-2-containing Klebsiella pneumoniae strain (Y-995); assay: as above; assay type: cell-based; details: Klebsiella pneumoniae
How it was run: as §1

[9] = tested on: OXA-48-containing Klebsiella pneumoniae strain (Y-1062); assay: as above; assay type: cell-based; details: Klebsiella pneumoniae
How it was run: as §1

[10] = tested on: multidrug-resistant Pseudomonas aeruginosa strain (S-2838 strain); assay: Test for protection against systemic infection in mouse with multidrug-resistant Pseudomonas aeruginosa; assay type: in vivo; details: sc, 72 h, read-out: survival rate 3 days after the inoculation with bacteria
Protocol: As mice, ICR male SPF mice (4 weeks old: 10 mice per group) were used. Clinically isolated multidrug-resistant Pseudomonas aeruginosa strain (S-2838 strain) cultured overnight on a Mueller-Hinton agar plate at 37° C. was cultured on a cation-adjusted Mueller Hinton medium for 5 hours, and then diluted 20-fold with a 10% mucin/phosphate buffer, thereby preparing an inoculum. An infection was induced by intraperitoneally inoculating the mice with the inoculum at 0.5 mL (about 10^6 CFU/mouse). Each test compound was dissolved in physiological saline, and 1 hour after the infection, the compound was subcutaneously administered once to the mice at 40 mg/kg. The control group was administered with the same amount of physiological saline used as a vehicle. The number of surviving mice was recorded 3 days after the infection.
A test for protection against systemic infection in a mouse with multidrug-resistant Pseudomonas aeruginosa was performed in the same manner as in Test Example 2.

Structure (SMILES)	MIC [1] [µg/mL]	MIC [2] [µg/mL]	MIC [3] [µg/mL]	MIC [4] [µg/mL]	MIC [5] [µg/mL]	MIC [6] [µg/mL]	MIC [7] [µg/mL]	MIC [8] [µg/mL]	MIC [9] [µg/mL]	responders at 40 mg/kg [10] [%]
CC(C)(O/N=C(\C(=O)NC1C(=O)N2C[C@@](C(=O)O)(N3CCN(NC(=O)CCNC(=O)/C(=N\O)c4ccc(O)c(O)c4Cl)C3=O)S[C@H]12)c1csc(N)n1)C(=O)O (stereo partly drawn) [Example 122]	2 (≈ 2.42 µM)	2 (≈ 2.42 µM)	1 (≈ 1.21 µM)	0.5 (≈ 0.604 µM)	< 0.06	2 (≈ 2.42 µM)	2 (≈ 2.42 µM)	0.5 (≈ 0.604 µM)	1 (≈ 1.21 µM)	≥ 90
CC(C)(O/N=C(\C(=O)NC1C(=O)N2C[C@@](C(=O)O)(N3CCN(NC(=O)/C(=N\O)c4ccc(O)c(O)c4Cl)C3=O)S[C@H]12)c1csc(N)n1)C(=O)O (stereo partly drawn) [Example 117]	0.5 (≈ 0.661 µM)	0.25 (≈ 0.331 µM)	2 (≈ 2.65 µM)	0.12 (≈ 0.159 µM)	< 0.06	2 (≈ 2.65 µM)	2 (≈ 2.65 µM)	0.25 (≈ 0.331 µM)	0.5 (≈ 0.661 µM)	≥ 90
CC(C)[C@H](O/N=C(\C(=O)NC1C(=O)N2C[C@@](C(=O)O)(N3CCN(NC(=O)C(=O)c4ccc(O)c(O)c4Cl)C3=O)S[C@H]12)c1csc(N)n1)C(=O)O (stereo partly drawn) [Example 114, (3R,5R,6R)-6-((Z)-2-(2-aminothiazol-4-yl)-2-(((S)-1-carboxy-2-methylpropoxy)imino)-acetamido)-3-(3-(2-(2-chloro-3,4-dihydroxy-phenyl)-2-oxoaceta-mido)-2-oxoimidazol-idin-1-yl)-7-oxo-4-thia-1-azabicyclo[3.2.0]-heptane-3-carboxylic acid]	1 (≈ 1.32 µM)	1 (≈ 1.32 µM)	2 (≈ 2.65 µM)	0.25 (≈ 0.331 µM)	< 0.06	2 (≈ 2.65 µM)	4 (≈ 5.3 µM)	0.25 (≈ 0.331 µM)	0.25 (≈ 0.331 µM)	≥ 90
Nc1nc(/C(=N/OC2(C(=O)O)CC2)C(=O)N[C@@H]2C(=O)N3C[C@@](C(=O)O)(N4CCN(NC(=O)CCNC(=O)C(=O)c5ccc(O)c(O)c5Cl)C4=O)S[C@H]23)cs1 [Example 31, (3R,5R,6R)-6-((Z)-2-(2-aminothiazol-4-yl)-2-((1-carboxycyclopropoxy)imino)acetamido)-3-(3-(3-(2-(2-chloro-3,4-dihydroxyphenyl)-2-oxoacetamido)propanamido)-2-oxoimidazolidin-1-yl)-7-oxo-4-thia-1-azabicyclo[3.2.0]heptane-3-carboxylic acid]	0.25 (≈ 0.309 µM)	< 0.06	0.25 (≈ 0.309 µM)	1 (≈ 1.23 µM)	0.12 (≈ 0.148 µM)	0.5 (≈ 0.617 µM)	1 (≈ 1.23 µM)	0.12 (≈ 0.148 µM)	1 (≈ 1.23 µM)	≥ 90
Nc1nc(/C(=N/OC2(C(=O)O)CCC2)C(=O)N[C@@H]2C(=O)N3C[C@@](C(=O)O)(N4CCN(NC(=O)C(=O)c5ccc(O)c(O)c5Cl)C4=O)S[C@H]23)cs1 [Example 19, (3R,5R,6R)-6-((Z)-2-(2-aminothiazol-4-yl)-2-((-1-carboxycyclobutoxy)imino)acetamido)-3-(3-(2-(2-chloro-3,4-dihydroxyphenyl)-2-oxoacetamido)-2-oxoimidazolidin-1-yl)-7-oxo-4-thia-1-azabicyclo[3.2.0]heptane-3-carboxylic acid]	0.25 (≈ 0.332 µM)	2 (≈ 2.66 µM)	0.25 (≈ 0.332 µM)	0.5 (≈ 0.664 µM)	< 0.06	0.25 (≈ 0.332 µM)	0.25 (≈ 0.332 µM)	0.25 (≈ 0.332 µM)	0.12 (≈ 0.159 µM)	≥ 90
COCC(NC(=O)C(=O)c1ccc(O)c(O)c1Cl)C(=O)NN1CCN([C@]2(C(=O)O)CN3C(=O)C(NC(=O)/C(=N\OC(C)(C)C(=O)O)c4csc(N)n4)[C@H]3S2)C1=O (stereo partly drawn) [Example 139, (3R,5R,6R)-6-((Z)-2-(2-aminothiazol-4-yl)-2-(((2-carboxypropan-2-yl)oxy)imino)aceta-mido)-3-(3-((R)-2-(2-(2-chloro-3,4-dihy-droxyphenyl)-2-oxo-acetamido)-3-methoxy-propanamido)-2-oxo-imidazolidin-1-yl)-7-oxo-4-thia-1-azabicyclo-[3.2.0]heptane-3-car-boxylic acid]	1 (≈ 1.19 µM)	0.5 (≈ 0.594 µM)	1 (≈ 1.19 µM)	2 (≈ 2.37 µM)	0.12 (≈ 0.142 µM)	2 (≈ 2.37 µM)	0.5 (≈ 0.594 µM)	1 (≈ 1.19 µM)	4 (≈ 4.75 µM)	≥ 90
